Calls of active or inactive are those of the source. Rule as the data show it, for most assays here: actives have a measured EC50 and inactives only a lower limit.
Tested on: not listed separately
Assay: Luminescence Cell-Based Dose Confirmation HTS to Identify Activators of 5'UTR Stem-Loop Driven Alpha-Synuclein mRNA Translation in H4 Neuroglioblastoma Cells. [Related pubchem assays: 1829 (Project Summary), 1814 (Primary HTS)]
Type: functional
Settings: not given

SMILES | EC50
CCOC(=O)C1=C(CSc2nc(-c3ccccc3)ccc2C#N)OC(N)=C(C#N)C1c1ccc(OC)cc1 (configuration not stated) | 12.3 µM (active)
Cc1nc2c(cc(Oc3ccc(S(=O)(=O)N4CCOCC4)cn3)c3ccsc32)s1 | 10.2 µM (active)

Tested on: not listed separately
Assay: Luminescence Cell-Based Dose Response HTS to Identify Activators of Luciferase Translation or Activity in H4 […] Cells. [Related pubchem assays: 1829 (Project Summary), 1814 (Primary HTS)]
Type: functional
Settings: not given

SMILES | EC50
CN(C)/C=N/c1ncnc2c1cnn2-c1ccc(C(F)(F)F)cn1 | > 120 µM (not active)
CCOC(=O)C1=C(CSc2nc(-c3ccccc3)ccc2C#N)OC(N)=C(C#N)C1c1ccc(OC)cc1 (configuration not stated) | 16.8 µM (active)
COc1ccc(C(=O)n2c(N)nc3ccccc32)cc1OC | 0.429 µM (active)
Cc1ccc(-n2nc3c(n2)/C(=N/O)CC/C3=N\O)cc1 | 1.05 µM (active)
Cc1nc2c(cc(Oc3ccc(S(=O)(=O)N4CCOCC4)cn3)c3ccsc32)s1 | 15.5 µM (active)

Tested on: Streptococcus sp. 'group A'
Assay: growth inhibition of control SK(-) GAS strain, dose response, counter-screen for streptokinase expression inhibitor project, luminescence, kanamycin, BacTiterGlo, confirmation (AID 1900)
Type: functional, organism-based
Settings: not given

SMILES | EC50
CC(C)S(=O)(=O)c1csc(NC(=O)Nc2cc(Cl)ccc2Cl)c1Cl | 1.3 µM (active)
CC(C)C(=O)Nc1ccc(C(=O)NNC(=S)NC(=O)c2cccs2)cc1 | 6.98 µM (active)
CC(C)n1cnc2c(NCc3ccccc3)nc(NCc3ccccc3)nc21 | 5.26 µM (active)
COc1cc(C(=O)NNC(=S)NC(=O)c2ccccc2C)cc(OC)c1OC | 2.06 µM (active)
O=C(c1cnn2c(C(F)(F)F)cc(-c3ccc(F)cc3)nc12)N1CCc2ccccc2C1 | 14 µM (active)
CC(=O)Nc1sc(NC(=O)c2ccc([N+](=O)[O-])cc2)nc1-c1cccs1 | > 150 µM (not active)

Tested on: H4
Assay: Luminescence Cell-Based Dose Response HTS to Identify Activators of 5'UTR Stem-Loop Driven Prion Protein mRNA Translation in H4 Neuroglioblastoma Cells. [Related pubchem assays: 1829 (Project Summary), 1814 (Primary HTS)]
Type: functional
Settings: Homo sapiens

SMILES | EC50
Oc1ccc(/C=N/Nc2cccc3cccnc23)c(O)c1 | 18.7 µM (active)
CN(C)/C=N/c1ncnc2c1cnn2-c1ccc(C(F)(F)F)cn1 | > 120 µM (not active)
CCOC(=O)C1=C(CSc2nc(-c3ccccc3)ccc2C#N)OC(N)=C(C#N)C1c1ccc(OC)cc1 (configuration not stated) | 13.3 µM (active)
Cc1nc2c(cc(Oc3ccc(S(=O)(=O)N4CCOCC4)cn3)c3ccsc32)s1 | > 120 µM (not active)

Target: T1, Streptokinase A (Streptococcus pyogenes serotype M1, UniProt P10520)
T1 sequence (P10520 whole entry): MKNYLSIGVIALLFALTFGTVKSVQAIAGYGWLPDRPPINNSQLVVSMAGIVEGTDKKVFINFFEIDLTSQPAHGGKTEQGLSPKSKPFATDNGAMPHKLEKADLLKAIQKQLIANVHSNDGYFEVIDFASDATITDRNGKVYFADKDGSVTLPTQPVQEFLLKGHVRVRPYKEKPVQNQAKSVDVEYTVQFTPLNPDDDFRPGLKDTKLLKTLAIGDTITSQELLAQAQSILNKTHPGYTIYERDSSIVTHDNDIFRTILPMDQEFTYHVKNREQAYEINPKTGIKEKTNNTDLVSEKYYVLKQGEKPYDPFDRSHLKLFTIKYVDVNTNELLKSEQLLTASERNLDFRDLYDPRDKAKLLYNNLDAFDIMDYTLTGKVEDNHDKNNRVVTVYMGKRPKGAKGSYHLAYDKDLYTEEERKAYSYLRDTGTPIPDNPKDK
Assay: S. pyogenes streptokinase expression inhibitors, potency, dose response, plasminogen activation absorbance, OD405 (AID 1914);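 also: secreted streptokinase activity via plasminogen activation per viability signal from cell pellet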
Type: functional, Streptococcus pyogenes M1 GAS
Settings: not given

SMILES | EC50
CC(C)S(=O)(=O)c1csc(NC(=O)Nc2cc(Cl)ccc2Cl)c1Cl | 7.69 µM (active)
CC(C)C(=O)Nc1ccc(C(=O)NNC(=S)NC(=O)c2cccs2)cc1 | > 150 µM (not active)
CC(C)n1cnc2c(NCc3ccccc3)nc(NCc3ccccc3)nc21 | > 150 µM (not active)
COc1cc(C(=O)NNC(=S)NC(=O)c2ccccc2C)cc(OC)c1OC | > 150 µM (not active)
O=C(c1cnn2c(C(F)(F)F)cc(-c3ccc(F)cc3)nc12)N1CCc2ccccc2C1 | 37 µM (active)
FC(F)(F)c1cc(CCN2C(=S)NC[C@@H]2CC2CCCCC2)cc(C(F)(F)F)c1 | 7 µM (active)
CC(=O)Nc1sc(NC(=O)c2ccc([N+](=O)[O-])cc2)nc1-c1cccs1 | > 150 µM (not active)

Tested on: Streptococcus
Assay: Group A Streptococcus viability loss, dose response, counter-screen for streptokinase expression inhibitor project, luminescence, BacTiterGlo (AID 1915);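 also: potency for reduction of bacterial viability or growth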
Type: functional, organism-based
Settings: not given

SMILES | EC50
CC(C)S(=O)(=O)c1csc(NC(=O)Nc2cc(Cl)ccc2Cl)c1Cl | 8.4 µM (active)
CC(C)C(=O)Nc1ccc(C(=O)NNC(=S)NC(=O)c2cccs2)cc1 | 34.8 µM (active)
CC(C)n1cnc2c(NCc3ccccc3)nc(NCc3ccccc3)nc21 | > 150 µM (not active)
COc1cc(C(=O)NNC(=S)NC(=O)c2ccccc2C)cc(OC)c1OC | 49.5 µM (active)
O=C(c1cnn2c(C(F)(F)F)cc(-c3ccc(F)cc3)nc12)N1CCc2ccccc2C1 | > 150 µM (not active)
CC(=O)Nc1sc(NC(=O)c2ccc([N+](=O)[O-])cc2)nc1-c1cccs1 | > 150 µM (not active)

Target: FAD-linked sulfhydryl oxidase ALR (Homo sapiens, UniProt P55789)
Assay: inhibitors of human ALR sulfhydryl oxidase, dose response, biochemical, H2O2 detection, luminescence, cherry-pick (AID 493248)
Settings: not given

Chain of FAD-linked sulfhydryl oxidase ALR (P55789 whole entry): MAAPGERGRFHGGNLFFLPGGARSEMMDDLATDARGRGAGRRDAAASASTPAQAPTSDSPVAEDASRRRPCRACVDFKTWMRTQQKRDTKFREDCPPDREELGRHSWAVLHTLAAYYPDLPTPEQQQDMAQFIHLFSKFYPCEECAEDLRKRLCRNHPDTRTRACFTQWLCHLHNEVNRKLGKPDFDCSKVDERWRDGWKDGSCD

SMILES | AC50
COc1cccc(-n2cnc3cccc(N)c32)c1 | 24.2 µM (active)
COc1ccc(CNc2ncc(-c3cccc([N+](=O)[O-])c3)n2C)c(OC)c1OC | 0.035 µM (active)
Cc1[nH]c2ccccc2c1CCNS(=O)(=O)c1ccc(S(N)(=O)=O)cc1 | 2.77 µM (active)
Cc1ccc(C2Cc3cc(O)c(O)cc3CN2)cc1 (configuration not stated) | 4.2 µM (active)
Fc1ccc(-n2nnnc2S)cc1N1CCCC1 | 5.21 µM (active)
O=C(Cc1ccc(Cl)cc1)N1CCN(c2ccccc2)CC1 | 17.8 µM (active)
Nc1cccc(Nc2ccccc2)c1 | 2.5 µM (active)
Sc1nnc2n1CCCN2 | 11.1 µM (active)
O=C(O)CCn1cc(C=C2C(=O)NC(=O)NC2=O)c(-c2cc3ccccc3oc2=O)n1 | 0.109 µM (active)
COc1cc(/C=C/c2ccc(O)cc2)cc(OC)c1 [PTEROSTILBENE] | 0.778 µM (active)

Target: T2, Polyadenylate-binding protein 1 (Homo sapiens, UniProt P11940)
Assay: PABP1 MLLE–PAM2 interaction inhibitors, dose response, miRNA deadenylation inhibitor project, biochemical, fluorescence polarization, Cy5-PAM2 peptide, secondary (AID 602260)
Type: functional
Settings: read-out: IC50_Mean

T2 sequence (P11940 whole entry): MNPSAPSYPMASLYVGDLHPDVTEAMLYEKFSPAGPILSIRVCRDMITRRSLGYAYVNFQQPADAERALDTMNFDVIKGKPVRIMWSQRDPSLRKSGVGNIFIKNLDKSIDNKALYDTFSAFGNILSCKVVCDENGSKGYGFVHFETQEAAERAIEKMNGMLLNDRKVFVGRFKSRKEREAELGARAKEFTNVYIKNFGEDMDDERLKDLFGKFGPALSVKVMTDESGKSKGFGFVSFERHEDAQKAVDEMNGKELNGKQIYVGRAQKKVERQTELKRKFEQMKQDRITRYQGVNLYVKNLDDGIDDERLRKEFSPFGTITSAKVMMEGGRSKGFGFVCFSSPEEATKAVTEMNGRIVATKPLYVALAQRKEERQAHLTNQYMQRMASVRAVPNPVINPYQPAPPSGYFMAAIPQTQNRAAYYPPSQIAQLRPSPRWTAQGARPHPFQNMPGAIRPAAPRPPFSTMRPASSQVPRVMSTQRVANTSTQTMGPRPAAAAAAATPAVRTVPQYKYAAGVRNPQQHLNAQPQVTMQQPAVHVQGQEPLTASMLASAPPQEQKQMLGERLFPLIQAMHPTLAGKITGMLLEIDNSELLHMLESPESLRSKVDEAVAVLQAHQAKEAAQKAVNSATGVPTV

SMILES | IC50
COCCOC(=O)C1=C(C)NC(=O)NC1c1c(Cl)nc2ccccn2c1=O (configuration not stated) | > 66 µM (inactive)

Target: T2, Polyadenylate-binding protein 1
Assay: PABP1 MLLE–PAM2 binding inhibitor potency, dose response, biochemical, fluorescence polarization, FITC-PAM2 peptide (AID 602259)
Type: functional
Settings: read-out: IC50_Mean

SMILES | IC50
COCCOC(=O)C1=C(C)NC(=O)NC1c1c(Cl)nc2ccccn2c1=O (configuration not stated) | > 66 µM (inactive)

— ChEMBL document CHEMBL1201862, “PubChem BioAssay data set” (2004)
